Experiment: xn = mol fraction of the nth substance listed
Conditions: 101.3 kPa, Liquid

CCCCN(CCCC)CCCC [tributylamine] + ClC(Cl)Cl
Conditions | mass density, 303.15 K [kg/m3] | mass density, 313.15 K [kg/m3] | viscosity, 303.15 K [mPa·s] | viscosity, 313.15 K [mPa·s]
x1 = 0.0102 | 1450.1 | 1428.49 | 0.533 | 0.479
x1 = 0.0205 | 1430.19 | 1409.15 | 0.545 | 0.488
x1 = 0.0308 | 1410.92 | 1390.4 | 0.557 | 0.496
x1 = 0.0404 | 1393.58 | 1373.58 | 0.569 | 0.504
x1 = 0.0505 | 1376.08 | 1356.5 | 0.583 | 0.513
x1 = 0.0598 | 1360.44 | 1341.35 | 0.593 | 0.522
x1 = 0.0695 | 1344.77 | 1326.07 | 0.606 | 0.529
x1 = 0.0799 | 1328.42 | 1310.05 | 0.615 | 0.538
x1 = 0.0856 | 1319.72 | 1301.56 | 0.621 | 0.545

CCCNCCC [dipropylamine] + ClC(Cl)Cl
Conditions | mass density, 303.15 K [kg/m3] | mass density, 313.15 K [kg/m3] | viscosity, 303.15 K [mPa·s] | viscosity, 313.15 K [mPa·s]
x1 = 0.0105 | 1457.85 | 1435.95 | 0.525 | 0.473
x1 = 0.0217 | 1444.32 | 1422.68 | 0.531 | 0.476
x1 = 0.0311 | 1433.19 | 1411.78 | 0.535 | 0.48
x1 = 0.0411 | 1421.35 | 1400.29 | 0.539 | 0.483
x1 = 0.051 | 1409.85 | 1389.04 | 0.544 | 0.486
x1 = 0.0608 | 1398.52 | 1378.03 | 0.548 | 0.488
x1 = 0.0708 | 1387.22 | 1366.94 | 0.552 | 0.492
x1 = 0.0808 | 1376 | 1356.01 | 0.558 | 0.494
x1 = 0.0914 | 1364.32 | 1344.6 | 0.561 | 0.497

CCCN(CCC)CCC [tripropylamine] + ClC(Cl)Cl
Conditions | mass density, 303.15 K [kg/m3] | mass density, 313.15 K [kg/m3] | viscosity, 303.15 K [mPa·s] | viscosity, 313.15 K [mPa·s]
x1 = 0.0106 | 1453.58 | 1431.77 | 0.531 | 0.476
x1 = 0.0206 | 1437.45 | 1416.02 | 0.541 | 0.48
x1 = 0.032 | 1419.7 | 1398.73 | 0.546 | 0.485
x1 = 0.0396 | 1407.99 | 1387.54 | 0.554 | 0.489
x1 = 0.0509 | 1391.16 | 1370.93 | 0.563 | 0.493
x1 = 0.0596 | 1378.63 | 1358.79 | 0.568 | 0.501
x1 = 0.0693 | 1364.78 | 1345.21 | 0.579 | 0.504
x1 = 0.0787 | 1351.78 | 1332.44 | 0.59 | 0.511
x1 = 0.0883 | 1338.63 | 1319.39 | 0.598 | 0.516
